Article PMC9250534, “Synthesis and direct assay of large macrocycle diversities by combinatorial late-stage modification at picomole scale” (Nature Communications, 2022)
Values joined by “and” are separate entries in the source; they are usually repeats but may differ in a detail not shown here. Equal values may be shown once.

Columns and labels:
[1] = molecular target: T1, MDM2 (Homo sapiens, UniProt Q00987); test: Competition binding of M10 and nutlin-3a (F-M10 or FP53 probe displacement from MDM2, FP); details: for F-M10 displacement (values are anisotropy): F-M10 macrocycle probe; for F-M10 displacement (values are anisotropy) / FP53 displacement (values are anisotropy): duplicates -1/-2; for FP53 displacement (values are anisotropy): FP53 linear peptide probe
Method: With the fluorescein conjugate, we also performed a competition experiment with nutlin-3a that binds to a defined hydrophobic pocket of MDM2[34] and is a precursor of nutlin-based clinical candidates.
Supplementary Figure 13. Studying the binding site of M10 by competition binding
by fluorescence polarization. The displacement was measured in two independent experiments
The displacement was measured in two

[2] = molecular target: T1, MDM2; test: MDM2 binding screen of Libraries 3 and 4: displacement of fluorescent probe F-M8 at 750 nM macrocycle; details: 750 nM macrocycle; crude reaction; probe F-M8
Outline: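 Competition with nutlin-3a was run using the fluorescein conjugate. Library members came from scaffolds reacted 6 h at room temperature with carboxylic acids (20 equiv.), HBTU and DABCO in DMSO. Quenching was overnight in Tris-Cl pH 7.4 buffer with 0.01% Tween20.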

T1 sequence (Q00987 whole entry): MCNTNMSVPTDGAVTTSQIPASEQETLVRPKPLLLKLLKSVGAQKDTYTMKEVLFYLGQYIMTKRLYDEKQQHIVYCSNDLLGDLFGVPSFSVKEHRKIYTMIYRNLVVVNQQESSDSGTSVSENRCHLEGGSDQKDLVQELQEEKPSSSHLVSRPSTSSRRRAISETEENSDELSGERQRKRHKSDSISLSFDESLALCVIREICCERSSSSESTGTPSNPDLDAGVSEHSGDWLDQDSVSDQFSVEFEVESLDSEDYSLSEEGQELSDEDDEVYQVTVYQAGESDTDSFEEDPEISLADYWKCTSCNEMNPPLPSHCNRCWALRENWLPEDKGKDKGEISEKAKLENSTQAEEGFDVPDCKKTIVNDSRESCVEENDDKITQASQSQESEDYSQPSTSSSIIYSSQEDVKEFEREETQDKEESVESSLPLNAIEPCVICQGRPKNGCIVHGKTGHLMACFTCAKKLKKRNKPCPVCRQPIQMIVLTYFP

| F-M10 displacement (values are anisotropy) ([1]; Log[Inhibitor] M -4.0) | F-M10 displacement (values are anisotropy) ([1]; Log[Inhibitor] M -4.3) | F-M10 displacement (values are anisotropy) ([1]; Log[Inhibitor] M -4.6) | F-M10 displacement (values are anisotropy) ([1]; Log[Inhibitor] M -4.9) | F-M10 displacement (values are anisotropy) ([1]; Log[Inhibitor] M -5.2) | F-M10 displacement (values are anisotropy) ([1]; Log[Inhibitor] M -5.5) | F-M10 displacement (values are anisotropy) ([1]; Log[Inhibitor] M -5.8) | F-M10 displacement (values are anisotropy) ([1]; Log[Inhibitor] M -6.1) | F-M10 displacement (values are anisotropy) ([1]; Log[Inhibitor] M -6.4) | F-M10 displacement (values are anisotropy) ([1]; Log[Inhibitor] M -6.7) | F-M10 displacement (values are anisotropy) ([1]; Log[Inhibitor] M -7.0) | F-M10 displacement (values are anisotropy) ([1]; Log[Inhibitor] M -7.3) | F-M10 displacement (values are anisotropy) ([1]; Log[Inhibitor] M -7.6) | F-M10 displacement (values are anisotropy) ([1]; Log[Inhibitor] M -7.9) | F-M10 displacement (values are anisotropy) ([1]; Log[Inhibitor] M -8.2) | F-M10 displacement (values are anisotropy) ([1]; Log[Inhibitor] M -8.5) | FP53 displacement (values are anisotropy) ([1]; Log[Inhibitor] M -4.0) | FP53 displacement (values are anisotropy) ([1]; Log[Inhibitor] M -4.3) | FP53 displacement (values are anisotropy) ([1]; Log[Inhibitor] M -4.6) | FP53 displacement (values are anisotropy) ([1]; Log[Inhibitor] M -4.9) | also measured | Molecule |
| --- | --- | --- | --- | --- | --- | --- | --- | --- | --- | --- | --- | --- | --- | --- | --- | --- | --- | --- | --- | --- | --- |
| 71 and 53 | 66 and 52 | 66 and 55 | 62 and 56 | 69 and 55 | 63 and 51 | 63 and 55 | 68 and 53 | 65 and 54 | 64 and 54 | 64 and 51 | 64 and 50 | 67 and 53 | 61 and 50 | 66 and 47 | 66 and 47 | 13 and 15 | 21 and 16 | 13 and 14 | 14 and 13 | FP53 displacement (values are anisotropy) ([1]; Log[Inhibitor] M -5.2): 15 and 11; FP53 displacement (values are anisotropy) ([1]; Log[Inhibitor] M -5.5): 15 and 18; FP53 displacement (values are anisotropy) ([1]; Log[Inhibitor] M -5.8): 15 and 14; FP53 displacement (values are anisotropy) ([1]; Log[Inhibitor] M -6.1): 19 and 23; FP53 displacement (values are anisotropy) ([1]; Log[Inhibitor] M -6.4): 30 and 27; FP53 displacement (values are anisotropy) ([1]; Log[Inhibitor] M -6.7): 43 and 49; FP53 displacement (values are anisotropy) ([1]; Log[Inhibitor] M -7.0): 56 and 61; FP53 displacement (values are anisotropy) ([1]; Log[Inhibitor] M -7.3): 64 and 66; FP53 displacement (values are anisotropy) ([1]; Log[Inhibitor] M -7.6): 64 and 68; FP53 displacement (values are anisotropy) ([1]; Log[Inhibitor] M -7.9): 66 and 67; FP53 displacement (values are anisotropy) ([1]; Log[Inhibitor] M -8.2): 65; FP53 displacement (values are anisotropy) ([1]; Log[Inhibitor] M -8.5): 69 and 66 | Nutlin |
|  |  |  |  |  |  |  |  |  |  |  |  |  |  |  |  |  |  |  |  | competition with fluorescein conjugate of M10 for MDM2 binding ([1]; FP competition experiment): did not compete | nutlin-3a [reference compound] |
| 23 and 19 | 19 and 11 | 18 and 15 | 18 and 10 | 14 and 12 | 15 and 12 | 18 and 9 | 17 and 10 | 20 and 15 | 24 and 19 | 30 and 21 | 40 and 26 | 46 and 32 | 52 and 42 | 57 and 39 | 57 and 42 | 35 and 39 | 34 and 40 | 35 and 36 | 31 and 36 | displacement of fluorescent probe from MDM2 [2]: 84%; FP53 displacement (values are anisotropy) ([1]; Log[Inhibitor] M -5.2): 32 and 39; FP53 displacement (values are anisotropy) ([1]; Log[Inhibitor] M -5.5): 31 and 40; FP53 displacement (values are anisotropy) ([1]; Log[Inhibitor] M -5.8): 30 and 37; FP53 displacement (values are anisotropy) ([1]; Log[Inhibitor] M -6.1): 32 and 36; FP53 displacement (values are anisotropy) ([1]; Log[Inhibitor] M -6.4): 31 and 40; FP53 displacement (values are anisotropy) ([1]; Log[Inhibitor] M -6.7): 42 and 51; FP53 displacement (values are anisotropy) ([1]; Log[Inhibitor] M -7.0): 51 and 55; FP53 displacement (values are anisotropy) ([1]; Log[Inhibitor] M -7.3): 54 and 63; FP53 displacement (values are anisotropy) ([1]; Log[Inhibitor] M -7.6): 60 and 67; FP53 displacement (values are anisotropy) ([1]; Log[Inhibitor] M -7.9): 60 and 65; FP53 displacement (values are anisotropy) ([1]; Log[Inhibitor] M -8.2): 66 and 67; FP53 displacement (values are anisotropy) ([1]; Log[Inhibitor] M -8.5): 63 and 67 | O=C(/C=C/c1ccc2c(c1)OCO2)NC[C@@H]1NC(=O)[C@H]2CCCN(C2)C(=O)CCSSCCNC(=O)[C@H](Cc2c[nH]c3ccccc23)NC1=O [M10] |
